In patent US6761694B2, “Methods for measuring retinal damage” (Allergan, Inc., priority 2001, dated 2004):

Tested on: retina exposed to laser (secondary retinal damage)
Assay: Retinal thickness analysis (Retinal Thickness Analyzer) after laser photocoagulation in a patient with AMD
Assay type: in vivo, human
Description: In order to calculate the slope of retinal thickness, the thickness of the retina must be measured. In practicing the methods of the invention, it is preferred that the retinal thickness be measured in situ as compared to histologically. Retinal thickness may be measured using publicly available devices generally configured to image optical cross-sections of the retina, and to digitally process the cross-sections to result in a measurement of retinal thickness. One such device used to practice the methods of the invention is the Retinal Thickness Analyzer ([…] Technology, Ltd., […] Zion, Israel) as disclosed in U.S. Pat. No. 6,267,477, entitled, “Three dimensional imaging apparatus and a method for use thereof”. Another device that may be used to measure retinal thickness in the methods of the invention is the Optical Coherence Tomography (OCT) Scanner (Humphrey Instruments, Inc., San Leandro, Calif.) and as described in U.S. Pat. No. 5,491,524, entitled, “Optical coherence tomography corneal mapping apparatus”. Another device that may be used to measure retinal thickness in practicing the methods of the invention is the Heidelberg Retina Tomograph (HRT; Heidelberg Engineering GmbH, Heidelberg, Germany) and as described in U.S. Pat. No. 5,170,276, entitled, “Apparatus for imaging an object”. The images obtained by such devices can then be examined, and the slope of retinal thickness measured. The slope of retinal thickness may be calculated as a ratio by measuring the change in retinal thickness as a function of distance between two or more points of the retina near the lesion site. The human retina is approximately 200-250 μm thick. Using the devices described above, it is possible to optically cross-section the retina in 20 μm increments. If the retinal thickness changes by 200 μm over a distance of 20 μm, the corresponding slope of retinal thickness would be 10. Similarly, if the retinal thickness changes 200 μm over a distance of 2 mm, the corresponding slope would be 0.1. In the foregoing examples, a slope of 10 indicates the retinal damage is less than the retinal damage where the slope of damage is 0.1. Persons skilled in the art will appreciate that the slope of retinal thickness may be calculated over any number of distances, and that the smallest distance is only limited by the resolution of the devices used to practice the methods of the invention. A person presents with blurred vision in their right eye with particular distorted images near the middle of their visual field. An ophthalmologist conducts an eye exam. […] The ophthalmologist detects the presence of an abnormal amount of soft drusen. A diagnosis of age-related macular degeneration (AMD) is made. […]

## CC12CC3CC(C)(C1)CC(N)(C3)C2 [memantine]
Memantine 0.25% w/v topically prior to laser treatment, after the surgery
  secondary damage by retinal thickness analysis: little secondary damage
Memantine 0.25% w/v topically, continued laser treatments
  visual impairment on additional laser treatments: without significant visual impairment
Over a distance of about 40 μm, memantine 0.25% w/v topically prior to laser treatment, twenty-one days after laser surgery
  change in retinal thickness: 200 μm
Person with AMD, memantine 0.25% w/v topically prior to laser photocoagulation, scan twenty-one days after laser surgery
  slope of damage (slope of retinal thickness): approximately 8
